One block for each compound: values may come before it.
Experiments:
[1] = animal testing; cited from earlier work
[2] = Solubility evaluation of diols containing an acid group in NMP or DPGDME; type: physicochemical; for Solubility, DMBA in DPGDGME (75° C.): key: An entry of 'Yes' indicates completely soluble; an entry of 'No' means not fully soluble; for Solubility, DMBA in NMP (25° C.): key: An entry of 'Yes' indicates completely soluble; an entry of 'No' means not fully soluble; for Solubility, DMPA in DPDGME (95° C.): key: An entry of 'Yes' indicates completely soluble; an entry of 'No' means not fully soluble; for Solubility, DMPA in NMP (25° C.): key: An entry of 'Yes' indicates completely soluble; an entry of 'No' means not fully soluble
Description: The solubility of certain diols containing an acid group (2,2-dimethylolpropionic acid (DMPA) and 2,2-dimethylolbutanoic acid (DMBA)) in dipropylene glycol dimethyl ether (DPGDME) and in N-methyl-2-pyrrolidone (NMP) are evaluated at different temperatures. The DPGDME used is PROGLYDE™ DMM (The Dow Chemical Company). The following concentrations with corresponding amounts of DMPA or DMBA and of solvent (DPGDME or NMP) are evaluated:
Using a 30 milliliter glass vial with a 24-mm black phenolic screw cap with poly seal liner from Fisher, the […] (DMBA or DMPA) is added at 5 wt. %, 10 wt. %, 15 wt. %, 20 wt. %, and 25 wt. % in the solvent (NMP or DPGDME) as specified in Table 1. Samples are heated on a high throughput heating/mixing station from 25° C. to 100° C. in 10° C. increments while mixing at 500 rpm with a magnetic stir bar. Samples are then removed an image is taken to record solubility.

SMILES: CN1CCCC1=O [NMP, N-methyl-2-pyrrolidone]
Reproductive toxicity [1]: shows reproductive toxicity

Solubility, DMBA in DPGDGME (75° C.) ([2]; 5 weight % in DPGDGME, 75° C.): Yes
Solubility, DMBA in NMP (25° C.) ([2]; 5 weight % in NMP): Yes
Solubility, DMBA in DPGDGME (75° C.) ([2]; 10 weight % in DPGDGME, 75° C.): Yes
Solubility, DMBA in NMP (25° C.) ([2]; 10 weight % in NMP): Yes
Solubility, DMBA in DPGDGME (75° C.) ([2]; 15 weight % in DPGDGME, 75° C.): Yes
Solubility, DMBA in NMP (25° C.) ([2]; 15 weight % in NMP): Yes
Solubility, DMBA in DPGDGME (75° C.) ([2]; 20 weight % in DPGDGME, 75° C.): Yes
Solubility, DMBA in NMP (25° C.) ([2]; 20 weight % in NMP): Yes
Solubility, DMBA in DPGDGME (75° C.) ([2]; 25 weight % in DPGDGME, 75° C.): Yes
Solubility, DMBA in NMP (25° C.) ([2]; 25 weight % in NMP): Yes
Solubility in DPGDME ([2]; 75° C.): fully dissolve
Solubility in both solvents tested (NMP and DPGDME) ([2]; all concentrations up to 25 weight %, varying temperatures): soluble
SMILES: CCC(CO)(CO)C(=O)O [DMBA, 2,2-dimethylolbutanoic acid]

Solubility, DMPA in DPDGME (95° C.) ([2]; 5 weight % in DPDGME, 95° C.): No
Solubility, DMPA in NMP (25° C.) ([2]; 5 weight % in NMP): Yes
Solubility in DPGDGME ([2]; 5 weight %, 95° C.): not fully soluble
Solubility, DMPA in DPDGME (95° C.) ([2]; 10 weight % in DPDGME, 95° C.): No
Solubility, DMPA in NMP (25° C.) ([2]; 10 weight % in NMP): Yes
Solubility, DMPA in DPDGME (95° C.) ([2]; 15 weight % in DPDGME, 95° C.): No
Solubility, DMPA in NMP (25° C.) ([2]; 15 weight % in NMP): Yes
Solubility, DMPA in DPDGME (95° C.) ([2]; 20 weight % in DPDGME, 95° C.): No
Solubility, DMPA in NMP (25° C.) ([2]; 20 weight % in NMP): Yes
Solubility, DMPA in DPDGME (95° C.) ([2]; 25 weight % in DPDGME, 95° C.): No
Solubility, DMPA in NMP (25° C.) ([2]; 25 weight % in NMP): Yes
Solubility in DPGDME (overall) ([2]; in DPGDME): poor
Solubility in NMP ([2]; room temperature (25° C.), all concentrations up to 25 weight %, upon mixing in NMP): completely soluble
SMILES: CC(CO)(CO)C(=O)O [DMPA, 2,2-dimethylolpropionic acid]
